From patent publication US7064115B2, “(20S)-1α-hydroxy-2α-methyl and 2β-methyl-19-nor-vitamin D3 and their uses” (Wisconsin Alumni Research Foundation, priority 2002, dated 2006)

Legend:
[1] = target: T1, vitamin D pig intestinal nuclear receptor (Sus scrofa, UniProt A3RGC1); test: Competitive binding of [3H]-1,25-(OH)2-D3 to the porcine intestinal vitamin D receptor; conditions: FIG. 1; for Binding to the vitamin D receptor (in words): compared with 1,25-(OH)2D3
T1 construct: from tissue; host or cells: pig intestine (nuclear receptor preparation)
T1 sequence (A3RGC1 1-427): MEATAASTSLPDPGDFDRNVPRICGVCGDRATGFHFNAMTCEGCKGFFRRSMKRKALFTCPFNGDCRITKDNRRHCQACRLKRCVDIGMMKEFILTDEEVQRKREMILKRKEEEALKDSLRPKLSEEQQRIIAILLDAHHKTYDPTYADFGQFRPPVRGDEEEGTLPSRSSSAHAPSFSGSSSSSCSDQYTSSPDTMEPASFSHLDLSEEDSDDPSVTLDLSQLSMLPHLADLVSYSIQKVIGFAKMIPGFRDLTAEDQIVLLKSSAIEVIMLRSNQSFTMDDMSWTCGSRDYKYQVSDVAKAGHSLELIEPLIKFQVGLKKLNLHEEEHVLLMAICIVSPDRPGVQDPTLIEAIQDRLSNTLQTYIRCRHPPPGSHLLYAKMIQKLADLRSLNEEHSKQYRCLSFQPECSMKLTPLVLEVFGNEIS
Description: FIG. 1 is a graph illustrating the relative activity of (20S)-1α-hydroxy-2α-methyl-19-nor-vitamin D3, (20S)-1α-hydroxy-2β-methyl-19-nor-vitamin D3, and 1α,25-dihydroxyvitamin D3 to compete for binding of [^3H]-1,25-(OH)2-D3 to the vitamin D pig intestinal nuclear receptor; and
Competitive binding of the analogs to the porcine intestinal receptor was carried out by the method described by Dame et al. (Biochemistry 25, 4523–4534, 1986).

[2] = Intestinal calcium transport in rats on low calcium diet, chronic i.p. doses; type: in vivo, Sprague-Dawley rats; conditions: for Ca transport S/M (mean ± SEM): male weanling rats, 0.02% Ca diet, 5 animals; for Activity in stimulating intestinal calcium transport relative to 1,25-(OH)2D3 (in words): summary of Table 1
Description: Intestinal calcium transport was determined as described by Perlman et al. (Biochemistry 29, 190–196, 1990).
(§1) Male, weanling Sprague-Dawley rats were placed on Diet 11 (0.47% Ca) diet+AEK for 11 days, followed by Diet 11 (0.02% Ca)+AEK for 31 days. Dosing (i.p.) began 7 days prior to sacrifice. Doses were given on a daily basis, 24 hours apart. The first 10 cm of the intestine was collected for gut transport studies and serum was collected for bone Ca mobilization analysis.

[3] = Serum calcium (bone calcium mobilization) in rats on low calcium diet, chronic i.p. doses; type: in vivo, Sprague-Dawley rats; design: Serum Ca (mean ± SEM): unit not given here; conditions: for Serum Ca (mean ± SEM): male weanling rats, 0.02% Ca diet, 5 animals; for Bone calcium mobilization activity relative to 1,25-(OH)2D3 (in words): summary of Table 1
Description: The in vivo tests to determine serum calcium of rats on a low calcium diet provides an insight to […] or bone activity of (20S)-1α-hydroxy-2α-methyl-19-nor-vitamin D3 and (20S)-1α-hydroxy-2β-methyl-19-nor-vitamin D3.
as §1

[4] = tested on: HL-60 cells; test: Differentiation of HL-60 promyelocytes into monocytes; type: cell-based; conditions: FIG. 2
Description: FIG. 2 is a graph illustrating the percent HL-60 cell differentiation as a function of the concentration of (20S)-1α-hydroxy-2α-methyl-19-nor-vitamin D3, (20S)-1α-hydroxy-2β-methyl-19-nor-vitamin D3, and of 1α,25-dihydroxyvitamin D3.
The differentation of HL-60 promyelocytic into monoctyes was determined as described by Ostrem et al. (J. Boil. Chem. 262, 14164–14171, 1987).

[5] = 130 pmol/day i.p. daily for 7 days
[6] = 260 pmol/day i.p. daily for 7 days

Row | Binding to the vitamin D receptor (in words) [1] | Affinity for the vitamin D receptor, fold less than 1α,25-dihydroxyvitamin D3 ([1]; relative to 1,25-(OH)2D3) [fold] | Binding to the vitamin D receptor (in words) ([1]; listed as 2β-methyl-(20S)-1α-hydroxyvitamin D3) | Structure (SMILES) | Ca transport S/M (mean ± SEM) [2, 5] | Ca transport S/M (mean ± SEM) [2, 6] | Activity in stimulating intestinal calcium transport relative to 1,25-(OH)2D3 (in words) [2] | Serum Ca (mean ± SEM) [3, 5] | Serum Ca (mean ± SEM) [3, 6] | Bone calcium mobilization activity relative to 1,25-(OH)2D3 (in words) [3] | Potency on HL-60 differentiation relative to 1,25-(OH)2D3 (in words) ([4]; listed as (20S)-1α-Hydroxy-2α-methyl-19-nor-vitamin D3) | Potency on HL-60 differentiation relative to 1,25-(OH)2D3 (in words) ([4]; listed as (20S)-1α-hydroxy-2α-methyl-19-nor-vitamin D3) | Potency on HL-60 differentiation relative to 1,25-(OH)2D3 (in words) [4] | HL-60 differentiation activity, times less active than 1,25(OH)2D3 ([4]; relative to 1,25(OH)2D3) [times]
1 | much less active than 1,25(OH)2D3 | 100 | – | CC(C)CCC[C@H](C)C1CCC2/C(=C/C=C3C[C@@H](O)C(C)[C@H](O)C3)CCC[C@@]21C (stereo partly drawn) [(20S)-1α-(OH)-2α-methyl-19-nor-D3, (20S)-1α-hydroxy-2α-methyl-19-nor-vitamin D3] | 8.6 ± 0.90 | 6.7 ± 0.68 | high activity relative to that of 1,25-(OH)2D3 | 10.0 ± 0.20 | 12.7 ± 0.15 | higher bone calcium mobilization activity, as compared to 1,25-(OH)2D3 | only slightly less active than 1,25-(OH)2D3 | almost as potent as 1,25-(OH)2D3 | – | –
2 | much less active than 1,25(OH)2D3 | – | does not bind | CC(C)CCC[C@H](C)C1CCC2/C(=C/C=C3C[C@@H](O)C(C)[C@H](O)C3)CCC[C@@]21C (stereo partly drawn) [(20S)-1α-(OH)-2β-methyl-19-nor-D3, (20S)-1α-hydroxy-2β-methyl-19-nor-vitamin D3] | 6.8 ± 0.73 | 5.7 ± 0.45 | about the same as 1,25-(OH)2D3 | 4.8 ± 0.04 | 5.1 ± 0.04 | about the same as 1,25-(OH)2D3 | – | – | only slightly less active than 1,25-(OH)2D3 | 100
3 | – | – | – | C=C1/C(=C\C=C2/CCC[C@]3(C)[C@@H]([C@H](C)CCCC(C)(C)O)CC[C@@H]23)C[C@@H](O)C[C@@H]1O [1α,25-(OH)2D3, 1α,25-dihydroxyvitamin D3, reference compound] | 5.3 ± 0.42 | 6.5 ± 0.84 | – | 5.0 ± 0.05 | 5.5 ± 0.16 | – | – | – | – | –
